Test results published in patent US4684664A, “Derivatives of β-(4-isocyano-1,2,3,4-diepoxycyclopentyl) acrylic acid” (Kureha Kagaku Kogyo Kabushiki Kaisha, priority 1984, dated 1987).
In brackets after ≈: the same amount, converted by molar mass.

Tests used:
Format in all cases: cell-based
[1] = test system: Staphylococcus aureus Terajima; test: Antibacterial activity, agar-dilution MIC, organism No. 2; conditions: Staphylococcus aureus; Organism No. 2, bouillon-agar; read-out: Minimum Inhibitory Concentration
In short: (§1)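 Agar dilution, bouillon-agar plates; MIC reported in μg/ml of medium.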

[2] = test system: Escherichia coli NIHJ-JC-2; test: Antibacterial activity, agar-dilution MIC, organism No. 5; conditions: Escherichia coli, NIHJJC2; Organism No. 5, bouillon-agar; read-out: Minimum Inhibitory Concentration
In short: as §1

[3] = test system: Klebsiella pneumoniae PCI-602; test: Antibacterial activity, agar-dilution MIC, organism No. 7; conditions: Klebsiella pneumoniae, PCI602; Organism No. 7, bouillon-agar; read-out: Minimum Inhibitory Concentration
In short: as §1

[4] = test system: Mycoplasma pneumoniae IID817; test: Antimycoplasmal activity, MIC by phenol red colour change, organism No. 28; conditions: Mycoplasma, IID817; Organism No. 28, PPLO broth + 1% glucose, 37° C.; read-out: Minimum Inhibitory Concentration (MIC)
Method: Mycoplasma pneumoniae IID817 was used as the test microorganism in a culture medium prepared by adding 1% of glucose to "PPLO broth (manufactured by Difco Co.) liquid culture medium" at 37° C. with phenol red as an indicator, thereby culturing the test microorganism.

[5] = test system: Enterobacter aerogenes ATCC 13048; test: Antibacterial activity, agar-dilution MIC, organism No. 23; conditions: Klebsiella aerogenes, ATCC13048; Organism No. 23, bouillon-agar; read-out: Minimum Inhibitory Concentration
In short: as §1

[6] = test system: Salmonella typhimurium IID 971; test: Antibacterial activity, agar-dilution MIC, organism No. 8; conditions: Salmonella enterica; Organism No. 8, bouillon-agar; read-out: Minimum Inhibitory Concentration
In short: as §1

[7] = test system: Streptococcus pyogenes Cook; test: Antibacterial activity, agar-dilution MIC, organism No. 4; conditions: Streptococcus pyogenes; Organism No. 4, bouillon-agar; read-out: Minimum Inhibitory Concentration
In short: as §1

[8] = test system: Staphylococcus aureus MS 353; test: Antibacterial activity, agar-dilution MIC, organism No. 3; conditions: Staphylococcus aureus, MS353; Organism No. 3, bouillon-agar; read-out: Minimum Inhibitory Concentration
In short: as §1

[9] = test system: Pseudomonas aeruginosa PAO 1; test: Antibacterial activity, agar-dilution MIC, organism No. 17; conditions: Pseudomonas aeruginosa, PAO1; Organism No. 17, bouillon-agar; read-out: Minimum Inhibitory Concentration
In short: as §1

Proteus vulgaris HX-19 = test: Antibacterial activity, agar-dilution MIC, organism No. 21; conditions: Proteus vulgaris, HX19; Organism No. 21, bouillon-agar; read-out: Minimum Inhibitory Concentration
In short: as §1

[10] = test system: Salmonella enteritidis G 14; test: Antibacterial activity, agar-dilution MIC, organism No. 12; conditions: Salmonella enterica, ENTERITIDIS; Organism No. 12, bouillon-agar; read-out: Minimum Inhibitory Concentration
In short: as §1

[11] = test system: Pseudomonas aeruginosa NCTC 10490; test: Antibacterial activity, agar-dilution MIC, organism No. 16; conditions: Pseudomonas aeruginosa, NCTC10490; Organism No. 16, bouillon-agar; read-out: Minimum Inhibitory Concentration
In short: as §1

Enterobacter cloacae 963 = test: Antibacterial activity, agar-dilution MIC, organism No. 24; conditions: Enterobacter cloacae, 963; Organism No. 24, bouillon-agar; read-out: Minimum Inhibitory Concentration
In short: as §1

Salmonella typhi 901 = test: Antibacterial activity, agar-dilution MIC, organism No. 9; conditions: Salmonella enterica, TYPHI, read-out: Minimum Inhibitory Concentration
In short: as §1

[12] = test system: Proteus morganii IFO 3848; test: Antibacterial activity, agar-dilution MIC, organism No. 18; conditions: Morganella morganii, IFO3848; Organism No. 18, bouillon-agar; read-out: Minimum Inhibitory Concentration
In short: as §1

[13] = test system: Micrococcus luteus ATCC 9341; test: Antibacterial activity, agar-dilution MIC, organism No. 25; conditions: Micrococcus luteus, ATCC9341; Organism No. 25, bouillon-agar; read-out: Minimum Inhibitory Concentration
In short: as §1

[14] = test system: Pseudomonas aeruginosa IFO 3445; test: Antibacterial activity, agar-dilution MIC, organism No. 15; conditions: Pseudomonas aeruginosa, IFO3445; Organism No. 15, bouillon-agar; read-out: Minimum Inhibitory Concentration
In short: as §1

[15] = test system: Streptococcus pyogenes IFO 3340; test: Antibacterial activity, agar-dilution MIC, organism No. 26; conditions: Streptococcus pyogenes, IFO3340; Organism No. 26, bouillon-agar; read-out: Minimum Inhibitory Concentration
In short: as §1

Proteus vulgaris OX-19 = test: Antibacterial activity, agar-dilution MIC, organism No. 20; conditions: Proteus vulgaris, OX19; Organism No. 20, bouillon-agar; read-out: Minimum Inhibitory Concentration
In short: as §1

[16] = test system: Staphylococcus aureus FDA 209PJc-1; test: Antibacterial activity, agar-dilution MIC, organism No. 1; conditions: Staphylococcus aureus, FDA209PJC1; Organism No. 1, bouillon-agar; read-out: Minimum Inhibitory Concentration
In short: as §1

[17] = test system: Aspergillus niger IFO 6342; test: Antifungal activity, agar-dilution MIC, organism No. 30; conditions: Aspergillus niger, IFO6342; Organism No. 30, bouillon-agar; read-out: Minimum Inhibitory Concentration
In short: as §1

[18] = test system: Candida albicans IAM 4905; test: Antifungal activity, agar-dilution MIC, organism No. 29; conditions: Candida albicans, IAM4905; Organism No. 29, bouillon-agar; read-out: Minimum Inhibitory Concentration
In short: as §1

[19] = test system: Escherichia coli K12 C600 IAM 1264; test: Antibacterial activity, agar-dilution MIC, organism No. 6; conditions: Escherichia coli, IAM1264; Organism No. 6, bouillon-agar; read-out: Minimum Inhibitory Concentration
In short: as §1

[20] = test system: Salmonella paratyphi-A 1015; test: Antibacterial activity, agar-dilution MIC, organism No. 10; conditions: Salmonella enterica, PARATYPHI, read-out: Minimum Inhibitory Concentration
In short: as §1

[21] = test system: Streptococcus faecium IFO 3826; test: Antibacterial activity, agar-dilution MIC, organism No. 27; conditions: Enterococcus faecium, IFO3826; Organism No. 27, bouillon-agar; read-out: Minimum Inhibitory Concentration
In short: as §1

[22] = test system: Proteus mirabilis IFO 3849; test: Antibacterial activity, agar-dilution MIC, organism No. 19; conditions: Proteus mirabilis, IFO3849; Organism No. 19, bouillon-agar; read-out: Minimum Inhibitory Concentration
In short: as §1

[23] = test system: Bacillus subtilis ATCC 6633; test: Antibacterial activity, agar-dilution MIC, organism No. 14; conditions: Bacillus subtilis, ATCC6633; Organism No. 14, bouillon-agar; read-out: Minimum Inhibitory Concentration
In short: as §1

[24] = test system: Proteus rettgeri IFO 3850; test: Antibacterial activity, agar-dilution MIC, organism No. 22; conditions: Providencia rettgeri, IFO3850; Organism No. 22, bouillon-agar; read-out: Minimum Inhibitory Concentration
In short: as §1

[25] = test system: Salmonella shottmuelleri 8006; test: Antibacterial activity, agar-dilution MIC, organism No. 11; conditions: Salmonella, 8006; Organism No. 11, bouillon-agar; read-out: Minimum Inhibitory Concentration
In short: as §1

[26] = test system: Serratia marcescens IAM 1184; test: Antibacterial activity, agar-dilution MIC, organism No. 13; conditions: Serratia marcescens, IAM1184; Organism No. 13, bouillon-agar; read-out: Minimum Inhibitory Concentration
In short: as §1

Structure (SMILES)	MIC [1] [µg/mL]	MIC [2] [µg/mL]	MIC [3] [µg/mL]	MIC [4] [µg/mL]	MIC [5] [µg/mL]	MIC [6] [µg/mL]	MIC [7] [µg/mL]	MIC [8] [µg/mL]	MIC [9] [µg/mL]	MIC (Proteus vulgaris HX-19) [µg/mL]	MIC [10] [µg/mL]	MIC [11] [µg/mL]	MIC (Enterobacter cloacae 963) [µg/mL]	MIC (Salmonella typhi 901) [µg/mL]	MIC [12] [µg/mL]	MIC [13] [µg/mL]	MIC [14] [µg/mL]	MIC [15] [µg/mL]	MIC (Proteus vulgaris OX-19) [µg/mL]	MIC [16] [µg/mL]	other results
[C-]#[N+]C12CC3(/C=C/C(=O)NOCc4ccccc4)OC3C1O2 (stereo not drawn) [compound 82]	0.2 (≈ 0.67 µM)	12.5 (≈ 41.9 µM)	0.39 (≈ 1.31 µM)	< 0.2	> 200	6.25 (≈ 21 µM)	0.78 (≈ 2.61 µM)	< 0.05	> 200	0.1 (≈ 0.335 µM)	0.78 (≈ 2.61 µM)	> 200	> 200	0.78 (≈ 2.61 µM)	0.78 (≈ 2.61 µM)	12.5 (≈ 41.9 µM)	> 200	1.56 (≈ 5.23 µM)	0.2 (≈ 0.67 µM)	< 0.05	MIC [17]: 3.13 µg/mL (≈ 10.5 µM); MIC [18]: 0.39 µg/mL (≈ 1.31 µM); MIC [19]: 12.5 µg/mL (≈ 41.9 µM); MIC [20]: 0.78 µg/mL (≈ 2.61 µM); MIC [21]: 1.56 µg/mL (≈ 5.23 µM); MIC [22]: > 200 µg/mL; MIC [23]: 6.25 µg/mL (≈ 21 µM); MIC [24]: > 200 µg/mL; MIC [25]: 0.78 µg/mL (≈ 2.61 µM); MIC [26]: > 200 µg/mL
[C-]#[N+]C12CC3(/C=C/C(=O)O)OC3C1O2 (stereo not drawn) [α substituted acrylic acid, β-(4-isocyano-1,2-3,4-diepoxycyclopentyl)acrylic acid, reference compound]	50 (≈ 259 µM)	12.5 (≈ 64.7 µM)	50 (≈ 259 µM)	< 0.2	200 (≈ 1040 µM)	12.5 (≈ 64.7 µM)	25 (≈ 129 µM)	25 (≈ 129 µM)	200 (≈ 1040 µM)	6.25 (≈ 32.4 µM)	3.13 (≈ 16.2 µM)	200 (≈ 1040 µM)	100 (≈ 518 µM)	6.25 (≈ 32.4 µM)	12.5 (≈ 64.7 µM)	12.5 (≈ 64.7 µM)	200 (≈ 1040 µM)	6.25 (≈ 32.4 µM)	6.25 (≈ 32.4 µM)	25 (≈ 129 µM)	MIC [17]: 25 µg/mL (≈ 129 µM); MIC [18]: 12.5 µg/mL (≈ 64.7 µM); MIC [19]: 12.5 µg/mL (≈ 64.7 µM); MIC [20]: 12.5 µg/mL (≈ 64.7 µM); MIC [21]: 50 µg/mL (≈ 259 µM); MIC [22]: 12.5 µg/mL (≈ 64.7 µM); MIC [23]: 25 µg/mL (≈ 129 µM); MIC [24]: 50 µg/mL (≈ 259 µM); MIC [25]: 12.5 µg/mL (≈ 64.7 µM); MIC [26]: 50 µg/mL (≈ 259 µM)
